What all share (type): biochemical
Assay [1] concerns Thermus sp. T351 esterase E100. Nature of the assay: Inhibition by reaction components on the hydrolysis of p-nitrophenylproprionate by E100. On the procedure:
Measurement of E100 Enzyme Activity--Esterase activity is measured by monitoring the hydrolysis of p-nitrophenylproprionate (pNP), or in some cases MUB. Each substrate is dissolved in acetonitrile and added to the reaction mixture (100 μM final concentration) which contain 50 mM Tris HCl pH 8.5 adjusted for temperature dependent pH variation. Reactions are thermally equilibrated at 37° C. for 5 minutes prior to initiation of the reaction by addition of 10 μL of enzyme sample, while control reactions substituted equivalent amounts of BSA. The reaction is monitored spectrophotometrically at 405 nm ε=17 mM^-1 cm^-1 for pNP and 360 nm ε=7.9 mM^-1 cm^-1 for MUB.
The rates of enzyme catalyzed hydrolysis are corrected for the spontaneous hydrolysis of the substrate. Protein concentrations are determined by either the absorbance at 280 nm or by Lowery assay. Crude activity is determined by a colorimetric assay based on the hydrolysis of 5-bromo-4-chloro-3-indoyl esters suspended in a 0.7% agar matrix on microtiter plates. A 0.1 mg/ml solution of the indolyl derivative is dissolved in a minimal volume of acetonitrile and added to a warm solution of 0.7% agar containing 0.1M phosphate buffer pH 7.5. 10 μL of this solution is distributed to microtiter plates which, when cooled, could be used with as much as 100 μL of enzyme sample and incubated at temperatures from ambient to >65° C.

Assay [2] deals with Thermus sp. T351 esterase E101.
In assay [3] the test system is Thermus sp. T351 esterase E100. Nature of the assay: Kinetic analysis of E100: concentration-dependent initial rates of nitrophenyl proprionate hydrolysis. The note with it: p-NP as substrate, pH 8.5, 50 mM Tris-HCl, 37° C. On the procedure:
FIG. 6. Kinetic analysis of E100.
Determination of Kinetic Characteristics--Kinetic characteristics are determined by measuring the concentration dependent initial rates of enzyme catalyzed hydrolysis of nitrophenyl proprionate. Reactions are run at pH 8.5 in 50 mM Tris-HCl buffer equilibrated to 37° C. and initiated by addition of enzyme. Rates are determined from the absorbance changes due to formation of product nitrophenol at 405 nm. Rates are corrected for the spontaneous hydrolysis of substrate during the course of the reaction. Concentration vs. rate data are analyzed by both double reciprocal plots and by HanesWolff plots to determine Km, Vmax and Vmax/Km.

In the case of `OCCS` [BME, β-mercaptoethanol], the “Relative Rate” value in assay [1] (additive 10 mM, None = 100, substrate p-nitrophenylproprionate) worked out at 99%.
Regarding `O=C(O)CN(CCN(CC(=O)O)CC(=O)O)CC(=O)O` [EDTA], the “Relative Rate” value in assay [1] (pH 8.5, 1000 µM) came out at 96.
With `O=S(=O)(F)Cc1ccccc1` [PMSF], in assay [1] (additive 0.1 mM, None = 100, substrate p-nitrophenylproprionate), the “Relative Rate” value was 0%. For the same compound, in assay [2], the “Inhibition of E101 (in words)” value is given as “inhibited”.
Take `CCC(=O)Oc1ccc([N+](=O)[O-])cc1` [p-NP, p-nitrophenylproprionate]: the Vmax in assay [3] was 1.8×10^-5 Mmin^-1. Besides, the Km in assay [3] (Lineweaver-Burke and Eadie-Hofstee analysis) stood at 72 µM.
On to `Cc1ccc(S(=O)(=O)F)cc1` [tosyl fluoride], for which the “Inhibition of E100 (in words)” value in assay [1] was “effectively inhibited”.

(Values after patent US6218163A, “Stable biocatalysts for ester hydrolysis” (Thermogen, Inc., priority 1996, dated 2001).)
